Like-named read-outs stand apart in the source and are kept apart here.
How the values were obtained:
[1] = test system: L929 cells; settings: mouse, 60 min
Protocol: Cytotoxicity is assessed by a colorimetric assay system (Sagripanti J-L, Bonifacino A. Cytotoxicity of Liquid Disinfectants. Surgical Infections, 2000; 1(1): 3-14, the content of which is hereby incorporated by reference, particularly with respect to the experimental methods described therein), using 3′-(phenylamino-carbonyl)-3,4-tetrazo-lium-bis(4-methoxy-6-nitro) benzene sulfonic acid hydrate (XTT), ProCheck™ cell viability assay (Evaluation of a soluble tetrazolium/formazan assay for cell growth and drug sensitivity in culture using human and other tumor cell lines described by Scudiero D A, Shoemaker R A H, Paul K D, Monks A, Tierney S, Nofziger T H, Currens M J, Seniff D, Boyd M R. Cancer Res. 1988 Sep. 1; 48(17):4827-33, the content of which is hereby incorporated by reference, particularly with respect to the experimental methods described therein). Similar approaches for determining the cell viability are used by other investigators. Three cell types are used: […] (L929), primary human skin fibroblast and primary human keratinocyte cells cultured in Dulbecco Modified Eagle's Medium and Keratinocyte defined medium with corresponding growth factors plus antibiotics. Cells are trypsinized and counted under the microscope and seeded at 1000-to-2000 cells per well of a flat-bottom 96-well plate. Cells are allowed to grow overnight at 37° C. Tissue culture media is removed the following day and cells are rinsed with fresh media 1× and then left in 50 μL of tissue culture media. Test articles are prepared as 2-fold dilutions and 200 μL is added into each set of 4-wells (total volume per well is 250 μL). Cells are exposed to test articles for 60 min at room temperature. Immediately after the exposed time, test article from each well is removed and cells are fed with 250 μL of fresh media. Plates are incubated at 37° C. for 18-20 hr. The following day media is removed again and replaced with 100 μL/well of fresh media containing 10/100 μL XTT-reagent. Cells are incubated under growth conditions (5% CO2 at 37° C. humidified incubator), protected from light, until color development is achieved. Absorbance is read at 450 nm with reference wavelength at 750 nm using Molecular Device ThermoMax Plate reader, blanking the plate on the medium-only assay blank wells. Untreated cells receiving XTT reagents-only serve as positive cell proliferation control.
Results are expressed as percentage of cells surviving the treatment as compared to PBS.

[2] = test system: E. coli (DH5-α); assay: MBC spot inoculation onto gridded agar plate (growth or no growth); assay type: cell-based; settings: spot inoculation from well 12, 11 and 10
Protocol: MBC was determined by plating 5 μL of each sample onto a gridded agar plate (see, for example, FIG. 1B). Plates were then incubated overnight at 37° C., and examined for growth or no growth. The concentration at which there was a complete absence of colony growth was determined to be the MBC. For FIGS. 1A and 1B, the 96-well plate format was used to culture E. coli (DH5-α) cells in M9 minimal media supplemented with glucose (M9) or same media supplemented with a range of concentrations of various analogs. Experiments were carried out in duplicate.

[3] = test system: E. coli (DH5-α); assay: Growth inhibition of E. coli by methionine analogs, 96-well plate, OD 550 nm over time; assay type: cell-based; settings: for Absorbance: 12.5 mM, OD 550 nm
From the text: Comparative Minimum Bactericidal Concentration (MBC) results provide estimates of the susceptibility of various test articles against test organisms. A modification of the […] (NCCL) Standardized Protocol “Methods for dilution antimicrobial susceptibility tests for bacteria that grow aerobically” was used in these studies. Sterile Phosphate Buffer Saline (PBS) at pH 7.0 (vehicle) was used as the diluent. Use of such diluent allows for the determination of the intrinsic activity of our test articles in the absence of any interfering molecules. Specifically, each test article was diluted using 2-fold serial dilution in 96-well plate to give a range of concentrations from approximately 50 mM to 0.05 mM in a final volume of 0.1 mL. Each dilution was inoculated with 5×10^5 CFU/mL test bacteria. The initial optical density as absorbance of each well was read at OD 550 nm using ThermoMax plate reader. […] At various time intervals post-treatment, OD reading at 550 nm was recorded at various time intervals. FIG. 1A and Table 1 show time dependent growth inhibition capability of analogs on E. coli at 12.5 mM. For FIGS. 1A and 1B, the 96-well plate format was used to culture E. coli (DH5-α) cells in M9 minimal media supplemented with glucose (M9) or same media supplemented with a range of concentrations of various analogs. Experiments were carried out in duplicate.

[4] = test system: S. epidermids; assay: Broad spectrum bacterial growth inhibition, 96-well plate, M9 media; assay type: cell-based
Protocol: (§1) Table 2 and FIG. 2 summarizes a series of studies, which were performed to test eradication of bacterial growth using various species (representative strains of gram positive and gram negative microorganisms commonly associated with wound infection). A 96-well plate format was used to culture different bacteria in M9 minimal media supplemented with glucose (M9) or same media supplemented with a range of concentrations of various analogues (Methionine, I-AA and I-AB). Experiments were carried out in duplicate.

[5] = test system: S. aureus; assay: as above; assay type: cell-based
Protocol: as §1

[6] = test system: Ps. sturtzeri; assay: as above; assay type: cell-based
Protocol: as §1

[7] = test system: test bacteria (gram positive and gram negative microorganisms commonly associated with wound infection); assay: Broad spectrum bacterial growth inhibition, all test species together; assay type: cell-based; settings: different bacteria in M9 minimal media
Protocol: as §1

`CSCC[C@H](NC(=O)CN)C(=O)NO.Cl` [I-AB, (S)-2-(2-aminoacetamido)-N-hydroxy-4-(methylthio)butanamide hydrochloride] was tested. Which “Percentage of Surviving L929 cells relative to control” value ([1]; 0.1 mM) did it give?
Its value is 99%.

What about the “Percentage of Surviving L929 cells relative to control” value ([1]; 0.2 mM) of the same compound?
The value was 92%.

What about the “Percentage of Surviving L929 cells relative to control” value ([1]; 0.39 mM) of the same compound?
Its value is 88%.

What about the “Percentage of Surviving L929 cells relative to control” value ([1]; 0.78 mM) of the same compound?
The value was 90%.

And the “Percentage of Surviving L929 cells relative to control” value ([1]; 1.56 mM)?
Its value is 89%.

What about the “Percentage of Surviving L929 cells relative to control” value ([1]; 3.13 mM) of the same compound?
The value was 86%.

And the “Percentage of Surviving L929 cells relative to control” value ([1]; 6.25 mM)?
Its value is 88%.

And the “Percentage of Surviving L929 cells relative to control” value ([1]; 12.5 mM)?
The value was 89%.

And the “Percentage of Surviving L929 cells relative to control” value ([1]; 25 mM)?
The value was 92%.

And the “Percentage of Surviving L929 cells relative to control” value ([1]; 50 mM)?
The value was 75%.

What about the “Re-growth after spot inoculation on agar plate” value [2] of the same compound?
The value was “absence of re-growth”.

And the Absorbance ([3]; E. coli, well 12, time 0 hrs)?
The Absorbance was 0.085.

And the Absorbance ([3]; E. coli, well 12, time 1 hrs)?
Its Absorbance is 0.095.

What about the Absorbance ([3]; E. coli, well 12, time 2 hrs) of the same compound?
Its Absorbance is 0.111.

What about the Absorbance ([3]; E. coli, well 12, time 3 hrs) of the same compound?
Its Absorbance is 0.104.

And the Absorbance ([3]; E. coli, well 12, time 3.75 hrs)?
The Absorbance was 0.090.

And the Absorbance ([3]; E. coli, well 12, time 5 hrs)?
Its Absorbance is 0.094.

And the Absorbance ([3]; E. coli, well 12, time 6.5 hrs)?
The Absorbance was 0.090.

And the Absorbance ([3]; E. coli, well 12, time 7.25 hrs)?
The Absorbance was 0.089.

And the Absorbance ([3]; E. coli, well 12, time 23 hrs)?
Its Absorbance is 0.091.

And the “Concentration dependence of bacterial growth inhibition” value ([3]; E. coli, spot inoculated agar plate (FIG. 1B))?
Its value is “concentration-dependent”.

What about the “E. coli growth inhibition” value ([3]; as compared to M9 and other analogs) of the same compound?
The value was “significantly inhibited”.

And the “Broad Spectrum Bacterial Growth Inhibition Data, S. epidermids” value ([4]; Conc. 0.0, well 4, M9 media)?
Its value is 0.7.

What about the “Broad Spectrum Bacterial Growth Inhibition Data, S. epidermids” value ([4]; Conc. 0.1, well 5, M9 media) of the same compound?
Its value is 0.7.

What about the “Broad Spectrum Bacterial Growth Inhibition Data, S. epidermids” value ([4]; Conc. 0.2, well 6, M9 media) of the same compound?
Its value is 0.6.

What about the “Broad Spectrum Bacterial Growth Inhibition Data, S. epidermids” value ([4]; Conc. 0.4, well 7, M9 media) of the same compound?
The value was 0.3.

And the “Broad Spectrum Bacterial Growth Inhibition Data, S. epidermids” value ([4]; Conc. 0.8, well 8, M9 media)?
The value was 0.2.

And the “Broad Spectrum Bacterial Growth Inhibition Data, S. epidermids” value ([4]; Conc. 1.6, well 9, M9 media)?
Its value is 0.2.

What about the “Broad Spectrum Bacterial Growth Inhibition Data, S. epidermids” value ([4]; Conc. 3.1, well 10, M9 media) of the same compound?
Its value is 0.1.

What about the “Broad Spectrum Bacterial Growth Inhibition Data, S. epidermids” value ([4]; Conc. 6.3, well 11, M9 media) of the same compound?
The value was 0.1.

And the “Broad Spectrum Bacterial Growth Inhibition Data, S. epidermids” value ([4]; Conc. 12.5, well 12, M9 media)?
Its value is 0.1.

What about the “Broad Spectrum Bacterial Growth Inhibition Data, S. aureus” value ([5]; Conc. 0.0, well 4, M9 media) of the same compound?
The value was 0.6.

What about the “Broad Spectrum Bacterial Growth Inhibition Data, S. aureus” value ([5]; Conc. 0.1, well 5, M9 media) of the same compound?
Its value is 0.6.

What about the “Broad Spectrum Bacterial Growth Inhibition Data, S. aureus” value ([5]; Conc. 0.2, well 6, M9 media) of the same compound?
Its value is 0.5.

What about the “Broad Spectrum Bacterial Growth Inhibition Data, S. aureus” value ([5]; Conc. 0.4, well 7, M9 media) of the same compound?
Its value is 0.5.

And the “Broad Spectrum Bacterial Growth Inhibition Data, S. aureus” value ([5]; Conc. 0.8, well 8, M9 media)?
The value was 0.5.

What about the “Broad Spectrum Bacterial Growth Inhibition Data, S. aureus” value ([5]; Conc. 1.6, well 9, M9 media) of the same compound?
The value was 0.4.

And the “Broad Spectrum Bacterial Growth Inhibition Data, S. aureus” value ([5]; Conc. 3.1, well 10, M9 media)?
The value was 0.2.

And the “Broad Spectrum Bacterial Growth Inhibition Data, S. aureus” value ([5]; Conc. 6.3, well 11, M9 media)?
Its value is 0.1.

What about the “Broad Spectrum Bacterial Growth Inhibition Data, S. aureus” value ([5]; Conc. 12.5, well 12, M9 media) of the same compound?
The value was 0.1.

And the “Broad Spectrum Bacterial Growth Inhibition Data, Ps. sturtzeri” value ([6]; Conc. 0.0, well 4, M9 media)?
Its value is 0.5.

And the “Broad Spectrum Bacterial Growth Inhibition Data, Ps. sturtzeri” value ([6]; Conc. 0.1, well 5, M9 media)?
Its value is 0.5.

And the “Broad Spectrum Bacterial Growth Inhibition Data, Ps. sturtzeri” value ([6]; Conc. 0.2, well 6, M9 media)?
Its value is 0.3.

And the “Broad Spectrum Bacterial Growth Inhibition Data, Ps. sturtzeri” value ([6]; Conc. 0.4, well 7, M9 media)?
Its value is 0.3.

What about the “Broad Spectrum Bacterial Growth Inhibition Data, Ps. sturtzeri” value ([6]; Conc. 0.8, well 8, M9 media) of the same compound?
The value was 0.2.

What about the “Broad Spectrum Bacterial Growth Inhibition Data, Ps. sturtzeri” value ([6]; Conc. 1.6, well 9, M9 media) of the same compound?
The value was 0.2.

What about the “Broad Spectrum Bacterial Growth Inhibition Data, Ps. sturtzeri” value ([6]; Conc. 3.1, well 10, M9 media) of the same compound?
Its value is 0.2.

And the “Broad Spectrum Bacterial Growth Inhibition Data, Ps. sturtzeri” value ([6]; Conc. 6.3, well 11, M9 media)?
The value was 0.2.

What about the “Broad Spectrum Bacterial Growth Inhibition Data, Ps. sturtzeri” value ([6]; Conc. 12.5, well 12, M9 media) of the same compound?
Its value is 0.2.

And the “Concentration dependence of bacterial growth inhibition” value [7]?
Its value is “concentration-dependent”.

What about the “Time within which most bacteria were killed” value [7] of the same compound?
Its value is ≤ 24 h.
